Read-outs that look alike come from different tables or passages of the source.
Key:
[1] = cited from earlier work
[2] = cattle, cited from earlier work
[3] = cited from earlier work; remark: listed apart in the source
[4] = sheep, cited from earlier work
[5] = cited from earlier work; remark: listed apart in the source
[6] = Nishizawa et al.; cited from earlier work
[7] = cattle; cited from earlier work
[8] = set-up: species or system cattle; details: bovine, in vivo
Text: For cattle, the same three-compartment model was used as described herein. With respect to sheep, the model differs from that shown in FIG. 1 in that de novo production of 3-methylhistidine is shown in compartment 2 and additionally, exit from compartment 3 occurs as well as from compartment 1 into urine. With respect to swine, again, de novo production of 3-methylhistidine is shown in compartment 2, and exit to urine is from compartment 3.
Urinary 3-methylhistidine may be used in cattle and humans as an index of muscle protein breakdown but is invalid for use in pigs and lambs. […] Previously, in validating urinary 3-methylhistidineas an index of muscle proteolysis, researchers have injected ^14 C-3-methylhistidine intravenously and recovered the tracer in urine but have never described its decay in plasma. In constructing the 3-compartment model, we kept in mind known physiology of 3-methylhistidine. It has been established that there are pools of 3-methylhistidine in plasma, in other extracellular fluid pools, within muscle and in other tissues. […] Based on comparison of fits, a 3-compartment model was the best model to describe the metabolism of 3-methylhistidine; however, 2- and 4-compartment models as well as other configurations were also evaluated. […]

[9] = sheep, cited from earlier work; remark: listed apart in the source
[10] = rabbit; cited from earlier work
[11] = cited from earlier work; remark: listed apart in the source
[12] = dogs, cited from earlier work
[13] = set-up: species or system dogs; details: dog, in vivo
Text: Urinary 3-methylhistidine may be used in cattle and humans as an index of muscle protein breakdown but is invalid for use in pigs and lambs. […] Previously, in validating urinary 3-methylhistidineas an index of muscle proteolysis, researchers have injected ^14 C-3-methylhistidine intravenously and recovered the tracer in urine but have never described its decay in plasma. In constructing the 3-compartment model, we kept in mind known physiology of 3-methylhistidine. It has been established that there are pools of 3-methylhistidine in plasma, in other extracellular fluid pools, within muscle and in other tissues. The primary fate of 3-methylhistidine in humans, cattle and dogs is into urine (model exit from compartment 1), but in sheep and pigs there is a balenine pool in muscle that accumulates over time (model exit from compartment 3). The kinetic data were initially fitted to three exponential terms, indicating the possibility of a three compartment model. […] Model code 10 of SAAM was used and the models were based on a set of linear differential equations having constant coefficients. Based on comparison of fits, a 3-compartment model was the best model to describe the metabolism of 3-methylhistidine; however, 2- and 4-compartment models as well as other configurations were also evaluated. […]

[14] = adult rat, Millward et al. 1980

Cn1cnc(C[C@H](N)C(=O)O)c1 [3-methylhistidine]
Contribution of skin and intestine to 3-methylhistidine excreted per day in urine ([1]; adult rat, Millward and Bates): 17%
Contribution of gastrointestinal tract to 3-methylhistidine excreted [1, 14]: 10%
Contribution of skeletal muscle to 3-methylhistidine excreted [1, 14]: 25%
Contribution of skin to 3-methylhistidine excreted [1, 14]: 7%
Reutilization for protein synthesis ([1]; no specific tRNA): not reutilized for protein synthesis
Share of total bound 3-methylhistidine in skeletal muscle ([1]; rat organs, Haverberg et al., skin and intestine not assessed): 98%
Urinary excretion ([1]; rat): quantitatively excreted in the urine
Contribution of small intestine to 24-hour urinary excretion ([1]; rats, duodenoileostomy): did not make a significant contribution
L2,1 fractional transfer rate ([2]; comparison): 0.18 min⁻¹
3MH Production ([2]; n=36, from model): 6.2 µmol/kg/day
M1, compartment mass ([2]; n=36): 806 nmol/kg
M2, compartment mass ([2]; n=36): 2106 nmol/kg
M3, compartment mass ([2]; n=36): 7803 nmol/kg
R01 mass transfer rate ([2]; n=36): 4.2 nmol/kg/min
R12 mass transfer rate ([2]; n=36): 107 nmol/kg/min
R21 mass transfer rate ([2]; n=36): 103 nmol/kg/min
R23 mass transfer rate ([2]; n=36): 9.6 nmol/kg/min
R32 mass transfer rate ([2]; n=36): 5.4 nmol/kg/min
L0,1 fractional transfer rate ([2]; number 39): .006 min⁻¹
L1,2 fractional transfer rate ([2]; number 39): .06 min⁻¹
L2,1 fractional transfer rate ([2]; number 39): .18 min⁻¹
L2,3 fractional transfer rate ([2]; number 39): .002 min⁻¹
L3,2 fractional transfer rate ([2]; number 39): .003 min⁻¹
Urinary 3MH loss ([2]; number 39): 100 % of total
Urinary excretion ([3]; pigs, retained in muscle as balenine): not quantitatively excreted in urine
3-methylhistidine excreted into urine ([3]; swine, of 3-methylhistidine from muscle metabolism): less than 2%
3MH Production ([4]; n=36, from model): 10.1 µmol/kg/day
M1, compartment mass ([4]; n=36): 4693 nmol/kg
M2, compartment mass ([4]; n=36): 11634 nmol/kg
M3, compartment mass ([4]; n=36): 16494 nmol/kg
R01 mass transfer rate ([4]; n=36): 1.4 nmol/kg/min
R03 mass transfer rate ([4]; n=36): 5.7 nmol/kg/min
R12 mass transfer rate ([4]; n=36): 930 nmol/kg/min
R21 mass transfer rate ([4]; n=36): 928 nmol/kg/min
R23 mass transfer rate ([4]; n=36): 80 nmol/kg/min
R32 mass transfer rate ([4]; n=36): 84 nmol/kg/min
L0,1 fractional transfer rate ([4]; number 40): .0003 min⁻¹
L0,3 fractional transfer rate ([4]; number 40): .0004 min⁻¹
L1,2 fractional transfer rate ([4]; number 40): .08 min⁻¹
L2,1 fractional transfer rate ([4]; number 40): .21 min⁻¹
L2,3 fractional transfer rate ([4]; number 40): .005 min⁻¹
L3,2 fractional transfer rate ([4]; number 40): .007 min⁻¹
Urinary 3MH loss ([4]; number 40): 17 % of total
Urinary excretion of total daily 3-methylhistidine produced [4]: 15%
3-methylhistidine excretion during exercise ([5]; humans): insignificant increase
3-methylhistidine excretion during recovery from exercise ([5]; humans): significant increase
Urinary excretion ([5]; man): quantitatively excreted in the urine
Contribution of skin and intestine to total body pool of 3-methylhistidine [6]: up to 10%
Urinary excretion [7]: quantitatively excreted in the urine
Model 3-methylhistidine production versus urinary production [8]: qualitatively similar
3-methylhistidine excreted in urine [9]: approximately 15%
Urinary excretion ([9]; retained in muscle as balenine): not quantitatively excreted in urine
Urinary excretion [10]: quantitatively excreted in the urine
3MH Production ([11]; pigs, n=20, from model): 7.2 µmol/kg/day
M1, compartment mass ([11]; pigs, n=20): 1110 nmol/kg
M2, compartment mass ([11]; pigs, n=20): 2857 nmol/kg
M3, compartment mass ([11]; pigs, n=20): 6151 nmol/kg
R03 mass transfer rate ([11]; pigs, n=20): 5.0 nmol/kg/min
R12 mass transfer rate ([11]; pigs, n=20): 247 nmol/kg/min
R21 mass transfer rate ([11]; pigs, n=20): 247 nmol/kg/min
R23 mass transfer rate ([11]; pigs, n=20): 32 nmol/kg/min
R32 mass transfer rate ([11]; pigs, n=20): 37 nmol/kg/min
Urinary excretion of total daily 3-methylhistidine produced ([11]; pigs): 1.5 %/d
L0,3 fractional transfer rate ([11]; swine, number 20): .0009 min⁻¹
L1,2 fractional transfer rate ([11]; swine, number 20): .09 min⁻¹
L2,1 fractional transfer rate ([11]; swine, number 20): .23 min⁻¹
L2,3 fractional transfer rate ([11]; swine, number 20): .006 min⁻¹
L3,2 fractional transfer rate ([11]; swine, number 20): .014 min⁻¹
Urinary 3MH loss ([11]; swine, number 20): 1 % of total
3MH Production ([12]; n=5, from model): 12 µmol/kg/day
M1, compartment mass ([12]; n=5): 3227 nmol/kg
M2, compartment mass ([12]; n=5): 7973 nmol/kg
M3, compartment mass ([12]; n=5): 9261 nmol/kg
R01 mass transfer rate ([12]; n=5): 9 nmol/kg/min
R12 mass transfer rate ([12]; n=5): 329 nmol/kg/min
R21 mass transfer rate ([12]; n=5): 319 nmol/kg/min
R23 mass transfer rate ([12]; n=5): 56 nmol/kg/min
R32 mass transfer rate ([12]; n=5): 56 nmol/kg/min
L0,1 fractional transfer rate ([12]; number 5): .02 min⁻¹
L1,2 fractional transfer rate ([12]; number 5): .06 min⁻¹
L2,1 fractional transfer rate ([12]; number 5): .11 min⁻¹
L2,3 fractional transfer rate ([12]; number 5): .008 min⁻¹
L3,2 fractional transfer rate ([12]; number 5): .006 min⁻¹
Urinary 3MH loss ([12]; number 5): 100 % of total
Model 3-methylhistidine production versus urinary production [13]: qualitatively similar

— patent US5628328A, “Method for measuring muscle mass” (priority 1995, dated 1997)
